Experiment: Susceptibility of axitinib API to degradation found during drug development
Assay type: physicochemical
Details: active pharmaceutical ingredient

CNC(=O)c1ccccc1Sc1ccc2c(/C=C/c3ccccn3)n[nH]c2c1 [axitinib, N-methyl-2-[3-((E)-2-pyridin-2-yl-vinyl)-1H-indazol-6-ylsulfanyl]-benzamide]
susceptibility to degradation, including photodegradation: highly susceptible to degradation, including photodegradation

Source: US20140248347A1 (PFIZER INC., priority 2011, published 2014)
